Assay results as given in patent publication US20080139534A1, “Bisbenzamidines and bisbenzamidoximes for the treatment of human African trypanosomiasis” (XAVIER UNIVERSITY OF LOUISIANA, priority 2006, published 2008).
Where two headings read alike, the source gives them in different places. Marks after values point to notes of the source that are not given here.

Legend:
[1] = tested on: T. b. brucei Lab 110 EATRO; test: In vitro trypanocidal activity, bloodforms in HMI-18 medium, Coulter counts; assay type: cell-based, Trypanosoma brucei brucei; settings: 48 h exposure, bloodforms, read-out: Lab 100 EATRO IC50
Experimental: (§1) The compounds were tested against trypanosome isolates grown as blood forms in HMI-18 medium containing 20% horse serum in 24 well microplates at 37° C. in 5% CO2. Wells were inoculated with 1×10^5 trypanosomes. […] One-half the volume was replaced daily. Cell counts were made daily with a Coulter Counter, Model Z1 (Beckman Coulter, Miami, Fla., USA). Cells were diluted with Isoton I buffer (Beckman Coulter) and the aperture was standardized at 5.14 μm. Background checks were performed daily on 1:10 dilutions of medium. Counts, normalization, and coincident counts were accounted for by the standardized Coulter analysis program. Occasionally, hemocytometer counts were performed as a check on the validity of the Coulter program. IC50 values were determined after 48 h from semi-log plots and the values are the result of duplicate determinations. Initially a broad concentration curve was used and then a close concentration curve from which IC50 values were determined. Assays were done in duplicate and each point was the average of the two. Control cells grew to 5×10^6/ml.
(§2) Coulter counts were made daily and IC50 values determined after 48 hours exposure.

poly(dA-dT) = test: Thermal denaturation study, DNA binding affinity (ΔTm); settings: 1:5 compound to base pair ratio;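 also: shift in the midpoint temperature of the thermal melting curve of poly(dA-dT), each value the mean of two or more independent determinations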
Experimental: (§3) The binding affinity was measured by determining the change in the midpoint (Tm) of the thermal denaturation curves of calf thymus DNA as well as poly(dA-dT) at a 1:5 compound to base pair ratio.

calf thymus DNA = test: as above; settings: 1:5 compound to base pair ratio;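 also: shift in midpoint melting temperature of calf thymus DNA thermal denaturation curves caused by compound binding, values averaged over at least two determinations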
Experimental: as §3

[2] = tested on: T. b. rhodesiense KETRI 243; test: In vitro trypanocidal activity, bloodforms in HMI-18 medium, Coulter counts; assay type: cell-based, Trypanosoma brucei rhodesiense; settings: 48 h exposure
Experimental: as §1, §2

[3] = tested on: T. b. brucei Lab 110 EATRO; test: In vivo efficacy in infected mice; design: species or system Trypanosoma brucei brucei
Experimental: Female Swiss-Webster mice (weight, 20 g) were infected (intraperitoneally) with 2.5×10^5 trypanosomes from rat blood, and the infection was allowed to develop for 24 h before drug treatment was begun. Groups of three mice each were injected (intraperitoneally) with each drug concentration. All of the experiments included a group of untreated controls. […] Parasitemia of animals dying of infection averaged 0.5-1.0×10^9/mL of blood. These infections are very predictable and daily counts were not done because of the labor involved. […] Animals were monitored weekly for parasites in tail vein blood smears. Mice were considered cured if they survived more than 30 days after the death of the last control with no parasites in tail vein blood smears. MSD (mean survival in days) was also recorded for each group. It is the average time of survival of the animals in the group, exclusive of cured animals.
Mice were infected with 250,000 parasites and dosing commenced 24 h. post infection. Mice were separated into groups of three and given single i.p doses for 3 days unless otherwise noted. Infected untreated controls were used for each experiment. Mice were considered cured if surviving more than 30 days beyond death of controls without parasites in tail vein blood smears. MSD, mean survival in days, exclusive of cured animals.

[4] = Trypanosoma brucei, RHODESIENSE
[5] = mice, 1, 2.5, 5, 10, 15, 25 mg/kg/day i.p. for 3 days (all doses failed to cure)
[6] = mice, 1, 2.5, 5, 10, 15, 25 mg/kg/day i.p. for 3 days (all doses)
[7] = mice, 1 mg/kg/day i.p. for 3 days
[8] = mice, 5 mg/kg/day i.p. for 3 days
[9] = mice, 10 mg/kg/day i.p. for 3 days

SMILES | IC50 [1] [µM] | DNA Binding Δ Tm Poly (dA-dT) (poly(dA-dT)) [°C] | DNA Binding Δ Tm Calf thymus (calf thymus DNA) [°C] | IC50 [2] [µM] | also measured
C(=C1CCCN(c2ccc(C3=NCCN3)cc2)C1)c1ccc(C2=NCCN2)cc1.Cl.Cl (mixture of isomers) [3SF] | 0.071 | 15.0 | 12.0 | 0.084 | 
Cl.Cl.c1cc(C2=NCCN2)ccc1CC1CCCN(c2ccc(C3=NCCN3)cc2)C1 (centres unmarked) [4CF] | 0.086 | 14.1 | 9.9 | 0.085 | 
Cl.Cl.N=C(N)c1ccc(N2CCCN(c3ccc(C(=N)N)cc3)CC2)cc1 [7AM] | 0.00215 | 23.1 | 15.0 | 0.0027 | 
O=C(Nc1ccc(C2=NCCN2)cc1)C1CC1C(=O)Nc1ccc(C2=NCCN2)cc1 (centres unmarked) [8IM] | > 1 | 9.6 | 6.0 | 0.44 | 
Cl.Cl.N=C(NC1CC1)c1ccc(N2CCN(c3ccc(C(=N)NC4CC4)cc3)CC2)cc1 [63C, N,N′-Dicyclopropyl 4,4′-(1,4-piperazinediyl)bisbenzenecarboxidamide] |  | 23.9 | 14.5 |  | 
CCCNC(=N)c1ccc(N2CCN(c3ccc(C(=N)NCCC)cc3)CC2)cc1.Cl.Cl [63N, N,N′-Dipropyl 4,4′-(1,4-piperazinediyl)bisbenzenecarboxidamide] |  | 26.0 | 17.0 |  | IC50 ([1]; Trypanosoma brucei): 0.035 µM; IC50 [2, 4]: 0.0325 µM
Cl.Cl.N=C(NC1CC1)c1ccc(N2CCCN(c3ccc(C(=N)NC4CC4)cc3)CC2)cc1 [73C] | 0.87 | 23.6 | 15.3 | 0.81 | 
CCCCNC(=N)c1ccc(N2CCCN(c3ccc(C(=N)NCCCC)cc3)CC2)cc1.Cl.Cl [74N] | 0.18 | 13.3 | 11.8 | 0.079 | 
Cl.Cl.c1cc(N2CCN(c3ccc(C4=NCCCN4)cc3)CC2)ccc1C1=NCCCN1 [632N] |  | 17.9 | 12.2 |  | 
Cl.Cl.c1cc(N2CCCN(c3ccc(C4=NCCCN4)cc3)CC2)ccc1C1=NCCCN1 [732N] |  | 21.3 | 15.5 |  | 
N=C(N)c1ccc(OCCCCCOc2ccc(C(=N)N)cc2)cc1 [Pentamidine, reference compound] |  | 20.6 | 11.1 |  | # Cured/#Treated (%) ([3]; mice, 1, 2.5, 5, 10, 25 mg/kg/day i.p. for 3 days (all doses cured)): 5/5*; MSD ([3]; mice, 1, 2.5, 5, 10, 25 mg/kg/day i.p. for 3 days (all doses)): >30 days; IC50 [2, 4]: 0.00232 µM
N#Cc1ccc(N2CCN(c3ccc(C#N)cc3)CC2)cc1 [compound 0101] | 2.89 | −0.3 | 0.1 | 1.05 | 
O=Cc1ccc(N2CCN(c3ccc(C=O)cc3)CC2)cc1 [compound 0107] |  | 0.0 | −0.2 |  | 
CN1CCN(C)C1c1ccc(N2CCN(c3ccc(C4N(C)CCN4C)cc3)CC2)cc1 [compound 0108] | 6.8 | 1.8 | 2.4 | 2.32 | 
c1ccc(N2CCN(c3ccccc3)C2c2ccc(N3CCN(c4ccc(C5N(c6ccccc6)CCN5c5ccccc5)cc4)CC3)cc2)cc1 [compound 0109] | 0.12 | 0.0 | −1.2 | 0.335 | 
c1cc(N2CCN(c3ccc(C4OCCO4)cc3)CC2)ccc1C1OCCO1 [compound 0111] | 5.8 | 0.1 | −1.2 | 2.3 | 
CN=C(N)c1ccc(N2CCN(c3ccc(C(N)=NC)cc3)CC2)cc1 [compound 0112, N,N′-Dimethyl 4,4′-(1,4-piperazinediyl)bisbenzenecarboxidamide] | 0.205 | 22.2 | 15.2 | 0.033 | 
c1ccc2[nH]c(-c3ccc(N4CCN(c5ccc(-c6nc7ccccc7[nH]6)cc5)CC4)cc3)nc2c1 [compound 0115, 1,4-bis[4-(1H-benzymidazol-2-yl)phenyl]piperazine] |  | 2.0 | 0.1 |  | IC50 ([1]; Trypanosoma brucei): 1.15 µM; IC50 [2, 4]: 5.8 µM
N=C(NO)c1ccc(N2CCN(c3ccc(C(=N)NO)cc3)CC2)cc1 [compound 0125, N,N′-Dihydroxy 4,4′-(1,4-piperazinediyl)bisbenzenecarboxidamide] |  |  | 0.8 |  | IC50 ([1]; Trypanosoma brucei): 1.02 µM; # Cured/#Treated (%) ([3]; mice, 50 mg/kg/day (po)): 0/3; MSD ([3]; mice, 50 mg/kg/day (po)): 5 days; # Cured/#Treated (%) ([3]; mice, 100 mg/kg/day (po)): 0/3; MSD ([3]; mice, 100 mg/kg/day (po)): 5 days; MSD ([3]; mice, 100 mg/kg/day (split dose, po; 9am and 4 pm)): >30 days; IC50 [2, 4]: 1.93 µM
CCCCCNC(=N)c1ccc(N2CCN(c3ccc(C(=N)NCCCCC)cc3)CC2)cc1.Cl.Cl [compound 0127] | 0.003 | 22.5 | 16.9 |  | 
CCCCCCCCNC(=N)c1ccc(N2CCN(c3ccc(C(=N)NCCCCCCCC)cc3)CC2)cc1.Cl.Cl [compound 0130] | 0.00365 |  | 4.2 | 0.019 | # Cured/#Treated (%) ([3]; mice, 1, 2.5, 5, 10, 15, 20 mg/kg/day i.p. for 3 days (all doses failed to cure)): 0/3^a; MSD ([3]; mice, 1, 2.5, 5, 10, 15, 20 mg/kg/day i.p. for 3 days (all doses)): 5 days

SMILES | IC50 [1] [µM] | DNA Binding Δ Tm Poly (dA-dT) (poly(dA-dT)) [°C] | DNA Binding Δ Tm Calf thymus (calf thymus DNA) [°C] | IC50 [2] [µM] | also measured
CCCCCCCCCCNC(=N)c1ccc(N2CCN(c3ccc(C(=N)NCCCCCCCCCC)cc3)CC2)cc1.Cl.Cl [compound 0131] | 0.18 |  | 1.3 | 0.22 | # Cured/#Treated (%) [3, 5]: 0/3^a; MSD [3, 6]: 5 days
Cl.Cl.N=C(NC1CCCCCCC1)c1ccc(N2CCN(c3ccc(C(=N)NC4CCCCCCC4)cc3)CC2)cc1 [compound 0134] | 0.0023 | 15.7 | 12.6 |  | 
Cl.Cl.N=C(NC1CCC1)c1ccc(N2CCN(c3ccc(C(=N)NC4CCC4)cc3)CC2)cc1 [compound 0143] | 0.006 |  | 16.4 | 0.051 | # Cured/#Treated (%) [3, 7]: 0/3; MSD [3, 7]: 5 days; MSD [3, 8]: 11 days; MSD [3, 9]: >30 days
N=C(NO)c1ccc(NC(=O)c2cccc(C(=O)Nc3ccc(C(=N)NO)cc3)c2)cc1 [compound 0323] |  | 0.1 | 0.6 |  | 
N=C(NO)c1ccc(NC(=O)c2ccc(C(=O)Nc3ccc(C(=N)NO)cc3)cc2)cc1 [compound 0333] |  | 0.0 | 0.6 |  | 
N=C(NO)c1ccc(C(=O)Nc2cccc(NC(=O)c3ccc(C(=N)NO)cc3)c2)cc1 [compound 0343] |  | 0.1 | −0.3 |  | 
N=C(NO)c1ccc(C(=O)Nc2ccc(NC(=O)c3ccc(C(=N)NO)cc3)cc2)cc1 [compound 0353] |  | 0.1 | 0.4 |  | 
N=C(N)c1ccc(OC(=O)c2ccc(C(=O)Oc3ccc(C(=N)N)cc3)cc2)cc1 [compound 0432] | 4.3 |  | 9.9 | 3.1 | 
N=C(N)c1ccc(OCc2cccc(COc3ccc(C(=N)N)cc3)c2)cc1 [compound 0512] | 0.00074 |  | 14.0 | 0.0015 | # Cured/#Treated (%) [3, 7]: 0/3; MSD [3, 7]: 8 days; # Cured/#Treated (%) [3, 8]: 0/3; MSD [3, 8]: 18 days; MSD [3, 9]: >30 days; MSD ([3]; mice, 15 mg/kg/day i.p. for 3 days): >30 days
N/C(=N\O)c1ccc(NC(=O)CCCC(=O)Nc2ccc(/C(N)=N/O)cc2)cc1 [compound 0704, N,N′-bis[4-(N-Hydroxyamidino)phenyl]pentanediamide] |  |  |  |  | IC50 ([1]; Trypanosoma brucei): 7.3 µM; IC50 [2, 4]: 10 µM
N=C(N)c1ccc(NC(=O)CCC(=O)Nc2ccc(C(=N)N)cc2)cc1 [compound 0707] | 9 |  |  | 2.19 | 
N=C(N)c1ccc(NC(=O)CCCCCCCC(=O)Nc2ccc(C(=N)N)cc2)cc1 [compound 0708] | 0.4 |  |  | 0.24 | 
N=C(N)c1ccc(NC(=O)CCCCCCCCCCC(=O)Nc2ccc(C(=N)N)cc2)cc1 [compound 0711] | 0.0084 |  |  | 0.0066 | # Cured/#Treated (%) [3, 5]: 0/3^a; MSD [3, 6]: 5 to 10.3 days
N#Cc1ccc(NC(=O)CC(=O)Nc2ccc(C#N)cc2)cc1 [compound 0712] | 5 |  |  | 1.6 | 
N#Cc1ccc(NC(=O)C(=O)Nc2ccc(C#N)cc2)cc1 [compound 0713] | 0.68 |  |  | 0.34 | 
O=C(Nc1ccccc1)C(=O)Nc1ccccc1 [compound 0714] |  |  |  | 0.155 | 
N=C(N)c1cccc(NC(=O)CCCCC(=O)Nc2cccc(C(=N)N)c2)c1 [compound 0715] | 0.041 |  |  | 0.021 | 
NC(=O)c1ccc(NC(=O)CCCCC(=O)Nc2ccc(C(N)=O)cc2)cc1 [compound 0716] | 2.8 |  |  | 1.1 | 
NC(=O)c1cccc(NC(=O)CCCCC(=O)Nc2cccc(C(N)=O)c2)c1 [compound 0717] |  |  |  | 1.98 | # Cured/#Treated (%) [3, 5]: 0/3^a; MSD [3, 6]: 5 days
N=C(N)c1ccc(NC(=O)CCCCC(=O)Nc2cccc(C(=N)N)c2)cc1 [compound 0721] | 0.0125 |  |  | 0.007 | 
